Four compounds from US20100040734A1, “Cacao Husk-Derived Water-Soluble, Dietary Fiber, Process For Its Production, Foods and Beverages Containing It And Methods For Their Preparation” (FUJI OIL COMPANY, LIMITED, priority 2000, published 2010) can be followed below.

Test in all cases: microbiostatic property by turbidity in standard liquid medium
Assay type in all cases: cell-based
Common to all, as to details: 35° C.

One test has as its system Saccharomyces cerevisiae. An excerpt:
(§1) For evaluation of the shelf-life extending property (microbiostatic property), there was used a standard liquid medium (pH 7.2) containing the cacao husk-derived water-soluble dietary fiber of the invention at 0%, 0.5% or 1.0% with suitable amounts of shelf stability increasing substances, and using Escherichia coli, Aspergilius oryzae and Saccharomyces cerevisiae as the target strains. […] As the turbidity of the medium increases with growth of the cells, a test substance with a microbiostatic property will inhibit the cell growth and result in less turbidity. The turbidity was determined by measuring the absorbance at a wavelength of 610 nm (the spectrophotometer used was PTL-396S by JASCO Co., Ltd.), and the units for the turbidity were based on JIS1010.

The test system of the next test is Aspergillus oryzae.
From the text: as §1

The next test has as its system Escherichia coli. The method, then: […] The turbidity was determined by measuring the absorbance at a wavelength of 610 nm (the spectrophotometer used was PTL-396S by JASCO Co., Ltd.), and the units for the turbidity were based on JIS1010.

With Glycerin fatty acid ester, the turbidity in the test on Saccharomyces cerevisiae (added at 0.01%, days stored 1) worked out at 79 unit; with Saccharomyces cerevisiae (added at 0.01%, days stored 2) it was 281 unit; with Saccharomyces cerevisiae (added at 0.01%, days stored 3), 485 unit; in the test on Saccharomyces cerevisiae (added at 0.05%, days stored 1), 38 unit; with Saccharomyces cerevisiae (added at 0.05%, days stored 2) it was 107 unit; in the test with Saccharomyces cerevisiae (added at 0.05%, days stored 3) it was 375 unit. Besides, the turbidity in the test on Aspergillus oryzae (added at 0.01%, days stored 1) was determined as 86 unit; in the test on Aspergillus oryzae (added at 0.01%, days stored 2) it was 417 unit; with Aspergillus oryzae (added at 0.05%, days stored 1), 53 unit; in the test on Aspergillus oryzae (added at 0.05%, days stored 2), 199 unit; with Aspergillus oryzae (added at 0.05%, days stored 3) it was 418 unit; in the test with Escherichia coli (added at 0.01%, days stored 1), 113 unit. The turbidity in the test with Escherichia coli (added at 0.01%, days stored 2) was determined as 415 unit; in the test on Escherichia coli (added at 0.05%, days stored 1), 47 unit; in the test with Escherichia coli (added at 0.05%, days stored 2) it was 196 unit; in the test with Escherichia coli (added at 0.05%, days stored 3), 305 unit; with Escherichia coli (added at 0.05%, days stored 4) it was 481 unit.

Consider `CCO` [Ethanol], for which the turbidity with Saccharomyces cerevisiae (added at 0.05%, days stored 1) turned out to be 59 unit; in the test on Saccharomyces cerevisiae (added at 0.05%, days stored 2), 251 unit; in the test on Saccharomyces cerevisiae (added at 0.05%, days stored 3), 487 unit; with Saccharomyces cerevisiae (added at 0.1%, days stored 1) it was 36 unit; in the test on Saccharomyces cerevisiae (added at 0.1%, days stored 2), 182 unit; with Saccharomyces cerevisiae (added at 0.1%, days stored 3), 411 unit. The turbidity worked out at 17 unit in the test on Aspergillus oryzae (added at 0.05%, days stored 1); 128 unit in the test with Aspergillus oryzae (added at 0.05%, days stored 2); 328 unit in the test on Aspergillus oryzae (added at 0.05%, days stored 3); 10 unit with Aspergillus oryzae (added at 0.1%, days stored 1); 112 unit in the test with Aspergillus oryzae (added at 0.1%, days stored 2); 251 unit in the test with Aspergillus oryzae (added at 0.1%, days stored 3). In addition, the turbidity in the test with Aspergillus oryzae (added at 0.1%, days stored 4) was 475 unit; in the test on Escherichia coli (added at 0.05%, days stored 1), 104 unit; in the test with Escherichia coli (added at 0.05%, days stored 2), 441 unit; in the test with Escherichia coli (added at 0.1%, days stored 1), 112 unit; with Escherichia coli (added at 0.1%, days stored 2), 382 unit; in the test with Escherichia coli (added at 0.1%, days stored 3), 455 unit.

For `[Cl-].[Na+]` [Salt], the turbidity is 112 unit with Saccharomyces cerevisiae (added at 1.0%, days stored 1); 425 unit with Saccharomyces cerevisiae (added at 1.0%, days stored 2); 24 unit in the test on Saccharomyces cerevisiae (added at 2.0%, days stored 1); 377 unit in the test with Saccharomyces cerevisiae (added at 2.0%, days stored 2); 99 unit with Aspergillus oryzae (added at 1.0%, days stored 1); 487 unit in the test with Aspergillus oryzae (added at 1.0%, days stored 2). Moreover, the turbidity is given as 68 unit in the test on Aspergillus oryzae (added at 2.0%, days stored 1); 272 unit in the test with Aspergillus oryzae (added at 2.0%, days stored 2); 429 unit in the test with Aspergillus oryzae (added at 2.0%, days stored 3); 141 unit in the test with Escherichia coli (added at 1.0%, days stored 1); 524 unit with Escherichia coli (added at 1.0%, days stored 2); 31 unit in the test with Escherichia coli (added at 2.0%, days stored 1). In addition, the turbidity with Escherichia coli (added at 2.0%, days stored 2) worked out at 353 unit.

With `O=C1O[C@H]([C@@H](O)CO)C([O-])=C1O.[Na+]` [Na ascorbate], the turbidity amounted to 122 unit in the test with Saccharomyces cerevisiae (added at 0.1%, days stored 1); 391 unit in the test with Saccharomyces cerevisiae (added at 0.1%, days stored 2); 76 unit in the test on Saccharomyces cerevisiae (added at 0.5%, days stored 1); 251 unit with Saccharomyces cerevisiae (added at 0.5%, days stored 2); 433 unit with Saccharomyces cerevisiae (added at 0.5%, days stored 3); 107 unit with Aspergillus oryzae (added at 0.1%, days stored 1). In addition, the turbidity was determined as 370 unit in the test with Aspergillus oryzae (added at 0.1%, days stored 2); 58 unit in the test with Aspergillus oryzae (added at 0.5%, days stored 1); 178 unit with Aspergillus oryzae (added at 0.5%, days stored 2); 422 unit in the test on Aspergillus oryzae (added at 0.5%, days stored 3); 115 unit with Escherichia coli (added at 0.1%, days stored 1); 402 unit in the test on Escherichia coli (added at 0.1%, days stored 2). Further, the turbidity with Escherichia coli (added at 0.5%, days stored 1) is reported as 18 unit; in the test on Escherichia coli (added at 0.5%, days stored 2), 211 unit; in the test with Escherichia coli (added at 0.5%, days stored 3), 315 unit; in the test on Escherichia coli (added at 0.5%, days stored 4), 452 unit.
